This note sets out measurements from ChEMBL document CHEMBL1201862, “PubChem BioAssay data set” (2004).

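Cells were grown in 96-well plates and exposed to each compound for 48 hours at five concentrations; endpoints were interpolated linearly between bracketing concentrations, or set to the highest concentration if not reached. The concentration for 50% growth inhibition is given as GI50.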 Activity calls are given as the source filed them. Rule as the data show it: active = GI50 up to about 1.1 µM and inactive = higher. Where only a bound is given, the exact number is not on record here.

Test systems include 786-0; A498; A549; CCRF-CEM; EKVX; MDA-N; NCI/ADR-RES; OVCAR-3; SF-295; SK-MEL-28; SK-MEL-5; SNB-19; SNB-75; TK-10; UACC-257; UACC-62; IGROV-1; Malme-3M; NCI-H522; BT-549.
Common to all, as to test: DTP human tumour cell line panel, 48 h

On to `CC1(C)[C@@H](Cn2cc(I)c(=O)[nH]c2=O)CC[C@@]1(C)CO`, for which the GI50 in the experiment with 786-0, with A498, in the experiment with A549, with CCRF-CEM, in the experiment with EKVX and in the experiment with MDA-N was > 100 µM (inactive) in each case. The GI50 (in general, the concentration at which growth is held to half of that of the control) in the experiment on NCI/ADR-RES is > 100 µM (inactive); in the experiment on OVCAR-3, > 100 µM (inactive); in the experiment on SF-295 it was > 100 µM (inactive); in the experiment with SK-MEL-28, > 100 µM (inactive); in the experiment with SK-MEL-5 it was 92.9 µM (inactive); with SNB-19 it was > 100 µM (inactive). Also, the GI50 in the experiment with SNB-75 was 40.3 µM (inactive); with TK-10, > 100 µM (inactive); in the experiment with UACC-257, > 100 µM (inactive); in the experiment with UACC-62 it was > 100 µM (inactive).

For `O=C1CC2C=CC(O)C(C1)C2` (stereo not drawn), the GI50 in the experiment on 786-0, in the experiment on A498, in the experiment with CCRF-CEM, in the experiment on IGROV-1, with MDA-N and with Malme-3M was > 100 µM (inactive) each time. Further, the GI50 in the experiment on NCI-H522, in the experiment with NCI/ADR-RES, with OVCAR-3, with SF-295, in the experiment with SK-MEL-28 and with SNB-19 was > 100 µM (inactive) throughout. In addition, the GI50 in the experiment with SNB-75 is 72.6 µM (inactive); in the experiment on TK-10, > 100 µM (inactive); in the experiment on UACC-257 it was > 100 µM (inactive); in the experiment with UACC-62 it was > 100 µM (inactive).

Turning to `CC1=C/C(=N\OCC(=O)O)CC(c2ccc(C(C)C)cc2)C1` (stereo not drawn), the GI50 was 65.8 µM (inactive) in the experiment on 786-0; 60.3 µM (inactive) in the experiment with A549; 34.4 µM (inactive) with CCRF-CEM; > 100 µM (inactive) in the experiment with EKVX; > 100 µM (inactive) in the experiment on IGROV-1; 34.5 µM (inactive) in the experiment with MDA-N. Moreover, the GI50 is 63.8 µM (inactive) in the experiment with Malme-3M; 23.2 µM (inactive) with NCI-H522; 21.1 µM (inactive) with NCI/ADR-RES; 39.8 µM (inactive) in the experiment on SF-295; 17.5 µM (inactive) with SK-MEL-5; 43 µM (inactive) in the experiment with UACC-257. Further, the GI50 in the experiment on UACC-62 is 33.7 µM (inactive).

For the compound `CC1(C)CC(=O)C2=C(C1)OC1=C(CC(C)(C)CC1=O)C2c1ccccc1Cl` (stereo not drawn), the GI50 with 786-0, in the experiment with A498, with A549, in the experiment on CCRF-CEM, in the experiment on EKVX and in the experiment on IGROV-1 was > 100 µM (inactive) throughout. Moreover, the GI50 with Malme-3M, in the experiment with NCI-H522, with NCI/ADR-RES, in the experiment on OVCAR-3, in the experiment on SF-295 and with SK-MEL-28 was > 100 µM (inactive) in each case. Also, the GI50 is 43.5 µM (inactive) with SK-MEL-5; > 100 µM (inactive) in the experiment with SNB-19; > 100 µM (inactive) with SNB-75; > 100 µM (inactive) with UACC-257; > 100 µM (inactive) in the experiment on UACC-62.

With `C[C@H](O)C1CC(Cn2nnc3c(N)ncnc32)C1(C)C` (stereo partly drawn), the GI50 in the experiment on 786-0, in the experiment with A498, with A549, in the experiment with CCRF-CEM, in the experiment on EKVX and in the experiment with MDA-N was > 100 µM (inactive) throughout. Further, the GI50 in the experiment on NCI/ADR-RES, with OVCAR-3, with SF-295, with SK-MEL-28, in the experiment with SK-MEL-5 and in the experiment with SNB-19 was > 100 µM (inactive) throughout. Besides, the GI50 was > 100 µM (inactive) with SNB-75, > 100 µM (inactive) with TK-10, > 100 µM (inactive) with UACC-257 and 5.36 µM (inactive) in the experiment on UACC-62.

For the compound `NC1=CN2c3ccccc3N(CC(=O)O)C2C=C1` (stereo not drawn), the GI50 in the experiment on 786-0, with A498, in the experiment on A549, in the experiment with BT-549, in the experiment with CCRF-CEM and in the experiment on EKVX was > 100 µM (inactive) throughout. Besides, the GI50 in the experiment with IGROV-1, with Malme-3M, in the experiment with NCI/ADR-RES, in the experiment with OVCAR-3, in the experiment with SF-295 and with SK-MEL-28 was > 100 µM (inactive) in each case. The GI50 in the experiment with SK-MEL-5, with SNB-19, in the experiment with SNB-75, in the experiment with TK-10, in the experiment with UACC-257 and in the experiment with UACC-62 was > 100 µM (inactive) throughout.

With `COP(=O)(Cc1ccc(/C=C/C#N)o1)OC`, the GI50 in the experiment with 786-0, with A498, in the experiment with A549, in the experiment on CCRF-CEM, with EKVX and in the experiment on IGROV-1 was > 100 µM (inactive) throughout. For the same compound, the GI50 was 47.2 µM (inactive) in the experiment on Malme-3M; > 100 µM (inactive) in the experiment on NCI-H522; > 100 µM (inactive) with NCI/ADR-RES; > 100 µM (inactive) in the experiment on OVCAR-3; > 100 µM (inactive) with SK-MEL-28; > 100 µM (inactive) in the experiment on SNB-19. Besides, the GI50 in the experiment on SNB-75, in the experiment with TK-10 and with UACC-62 was > 100 µM (inactive) each time.

`C/C=C/[C@H]1O[C@@](O)([C@@H](C)[C@H](O)[C@H](C)[C@H]2OC(=O)/C(OC)=C/C(C)=C/[C@@H](C)[C@@H](O)[C@@H](CC)[C@@H](O)[C@H](C)C/C(C)=C/C=C/[C@@H]2OC)C[C@H](OC2CC(O)C(OC(N)=O)C(C)O2)[C@@H]1C` (stereo partly drawn): the GI50 is 0.0183 µM (active) in the experiment on 786-0; 18.8 µM (inactive) in the experiment with A498; < 0.0181 µM (active) in the experiment on A549; 0.0843 µM (active) in the experiment on BT-549; < 0.01 µM (active) in the experiment on CCRF-CEM; 0.0719 µM (active) with EKVX. The GI50 in the experiment with IGROV-1 was 0.0458 µM (active); in the experiment on Malme-3M, 0.122 µM (active); with NCI-H522 it was 0.0399 µM (active); in the experiment on NCI/ADR-RES, 0.759 µM (active); in the experiment with OVCAR-3, < 0.0181 µM (active); with SF-295, 0.0248 µM (active). For the same compound, the concentration for 50% growth inhibition (GI50) in the experiment with SK-MEL-28 is 0.74 µM (active); with SK-MEL-5, 0.0142 µM (active); in the experiment on SNB-19 it was 8.22 µM (inactive); in the experiment on SNB-75, 0.525 µM (active); with TK-10 it was 17.3 µM (inactive); in the experiment on UACC-257, 0.0641 µM (active). In addition, in the experiment on UACC-62, the GI50 is 0.0231 µM (active).

Turning to `Cc1cc2nc3c(N)nn(CCCN(C)C)c3nc2cc1C`, the GI50 in the experiment with 786-0 is 68.9 µM (inactive); in the experiment on A498, > 100 µM (inactive); with A549 it was > 100 µM (inactive); with BT-549, > 100 µM (inactive); with EKVX, > 100 µM (inactive); in the experiment on NCI/ADR-RES it was 59.7 µM (inactive). The GI50 in the experiment on OVCAR-3, with SF-295, with SK-MEL-28, in the experiment on SK-MEL-5, with SNB-19 and in the experiment with SNB-75 was > 100 µM (inactive) throughout. The results for the GI50 in the experiment on TK-10, in the experiment on UACC-257 and in the experiment with UACC-62 were 71.6 µM (inactive), 97.5 µM (inactive) and 95.7 µM (inactive), respectively.

For the compound `N#CCCN(CCC#N)c1ccc(/C=C(/NC(=O)c2cc([N+](=O)[O-])ccc2Cl)C(=O)N=[N+]=[N-])cc1`, the GI50 with 786-0, with A498, in the experiment with A549, in the experiment with CCRF-CEM, in the experiment on EKVX and in the experiment with IGROV-1 was > 100 µM (inactive) each time. For the same compound, the GI50 in the experiment on Malme-3M, with NCI-H522, with OVCAR-3, with SF-295, in the experiment with SK-MEL-28 and in the experiment on SK-MEL-5 was > 100 µM (inactive) in each case. The GI50 in the experiment with SNB-19, with SNB-75, in the experiment on TK-10, in the experiment on UACC-257 and in the experiment with UACC-62 was > 100 µM (inactive) each time.

In the case of `C[C@H]1OC(=O)[C@@H]2N=NN(Cc3ccccc3)[C@H]12`, the GI50 in the experiment on 786-0, in the experiment on A498, in the experiment on A549, in the experiment on MDA-N, in the experiment with Malme-3M and with NCI-H522 was > 100 µM (inactive) each time. Also, the GI50 in the experiment on NCI/ADR-RES, with OVCAR-3, in the experiment on SF-295, in the experiment with SK-MEL-28, with SK-MEL-5 and in the experiment on SNB-19 was > 100 µM (inactive) in each case. For the same compound, the GI50 in the experiment with TK-10 and with UACC-62 was > 100 µM (inactive) each time.

As to `COc1cc2cc3c4c(cc(OC)c(OC)c4c2cc1OC)CCN3C(=O)OCCBr`, the GI50 in the experiment on 786-0 was 55.8 µM (inactive); in the experiment on A498 it was 19.8 µM (inactive); in the experiment with A549, 28 µM (inactive); with CCRF-CEM, 20.6 µM (inactive); in the experiment on EKVX, 10.1 µM (inactive); in the experiment with IGROV-1, > 100 µM (inactive). Moreover, the GI50 is > 100 µM (inactive) with Malme-3M; 37.6 µM (inactive) with NCI-H522; > 100 µM (inactive) in the experiment on OVCAR-3; > 100 µM (inactive) with SF-295; > 100 µM (inactive) in the experiment with SK-MEL-28; 53.1 µM (inactive) in the experiment on SK-MEL-5. The GI50 in the experiment with SNB-19 is > 100 µM (inactive); in the experiment with SNB-75, 46 µM (inactive); with TK-10, > 100 µM (inactive); in the experiment on UACC-257, > 100 µM (inactive); in the experiment with UACC-62 it was 60.4 µM (inactive).
